Test results as given in patent US8268990B2, “Compounds” (AstraZeneca AB, priority 2007, dated 2012).

target: T1, Recombinant human TLR7 (Homo sapiens, UniProt Q9NYK1); assay: Human TLR7 Assay (SEAP reporter); format: cell-based; conditions: HEK293 cell line stably expressing human TLR7 and pNiFty2-SEAP reporter; SEAP induction after overnight incubation at 37° C., 0.1% (v/v) DMSO;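 further: SEAP driven by an NFkB-responsive composite promoter, pEC50 read at half of each compound's own maximal SEAP induction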
T1 construct: expressed in transfected cells; host or cells: HEK293 cell line stably expressing the pNiFty2-SEAP reporter plasmid; TLR7 in vector pUNO, blasticidin selection
T1 sequence (Q9NYK1 27-1049): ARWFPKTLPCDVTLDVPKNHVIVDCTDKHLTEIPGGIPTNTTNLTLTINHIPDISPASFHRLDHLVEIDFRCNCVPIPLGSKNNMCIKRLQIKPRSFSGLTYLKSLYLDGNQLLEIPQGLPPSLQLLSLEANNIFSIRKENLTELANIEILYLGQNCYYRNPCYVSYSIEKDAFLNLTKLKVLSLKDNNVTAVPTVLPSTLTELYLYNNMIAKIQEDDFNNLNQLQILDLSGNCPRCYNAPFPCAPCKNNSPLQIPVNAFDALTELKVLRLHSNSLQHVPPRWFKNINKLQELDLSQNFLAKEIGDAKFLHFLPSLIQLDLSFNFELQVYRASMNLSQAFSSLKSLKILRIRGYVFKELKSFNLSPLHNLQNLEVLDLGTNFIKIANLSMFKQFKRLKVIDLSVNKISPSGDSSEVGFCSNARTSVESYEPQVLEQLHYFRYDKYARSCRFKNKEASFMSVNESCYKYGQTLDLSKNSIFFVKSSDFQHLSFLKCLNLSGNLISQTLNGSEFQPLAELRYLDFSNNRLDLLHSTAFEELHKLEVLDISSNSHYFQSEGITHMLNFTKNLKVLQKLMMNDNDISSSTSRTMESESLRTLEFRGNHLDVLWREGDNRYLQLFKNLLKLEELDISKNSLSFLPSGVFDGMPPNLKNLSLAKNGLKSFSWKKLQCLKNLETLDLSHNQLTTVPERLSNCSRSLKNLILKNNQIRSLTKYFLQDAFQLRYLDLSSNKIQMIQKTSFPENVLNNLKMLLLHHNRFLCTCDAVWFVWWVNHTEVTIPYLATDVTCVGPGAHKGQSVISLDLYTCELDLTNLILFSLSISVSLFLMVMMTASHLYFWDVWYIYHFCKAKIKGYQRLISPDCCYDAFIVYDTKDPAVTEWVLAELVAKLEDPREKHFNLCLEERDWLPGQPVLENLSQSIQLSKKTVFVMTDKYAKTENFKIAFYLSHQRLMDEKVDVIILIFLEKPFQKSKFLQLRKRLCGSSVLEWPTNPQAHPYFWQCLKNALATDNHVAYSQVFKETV
From the text: Recombinant human TLR7 was stably expressed in a HEK293 cell line already stably expressing the pNiFty2-SEAP reporter plasmid; integration of the reporter gene was maintained by selection with the antibiotic zeocin. The most common variant sequence of human TLR7 (represented by the EMBL sequence AF240467) was cloned into the mammalian cell expression vector pUNO and transfected into this reporter cell-line. Transfectants with stable expression were selected using the antibiotic blasticidin. In this reporter cell-line, expression of secreted alkaline phosphatase (SEAP) is controlled by an NFkB/ELAM-1 composite promoter comprising five NFkB sites combined with the proximal ELAM-1 promoter. TLR signaling leads to the translocation of NFkB and activation of the promoter results in expression of the SEAP gene. TLR7-specific activation was assessed by determining the level of SEAP produced following overnight incubation of the cells at 37° C. with the standard compound in the presence of 0.1% (v/v) dimethylsulfoxide (DMSO). Concentration dependent induction of SEAP production by compounds was expressed as the concentration of compound which produced half of the maximal level of SEAP induction for that compound (pEC50).

EC50 [nM] | SMILES
50.1 | CCC[C@@H](CCO)Nc1nc(N)nc(C)c1Cc1ccc(CC(=O)OCCCCN2CCCC2)cc1O [Example 78, (S)-4-(Pyrrolidin-1-yl)butyl 2-(4-((2-amino-4-(1-hydroxyhexan-3-ylamino)-6-methylpyrimidin-5-yl)methyl)-3-hydroxyphenyl)acetate]
126 | CCCCNc1nc(N)nc(C)c1Cc1ccc(CC(=O)OCCCCN2CCCC2)cc1O [Example 79, 4-(Pyrrolidin-1-yl)butyl 2-(4-((2-amino-4-(butylamino)-6-methylpyrimidin-5-yl)methyl)-3-hydroxyphenyl)acetate]
1000 | CC[C@H](O)CNc1nc(N)nc(C)c1Cc1ccc(CC(=O)OCC2CCN(C)CC2)cc1 [Example 81, (S)-(1-Methylpiperidin-4-yl)methyl 2-(4-((2-amino-4-(2-hydroxybutylamino)-6-methylpyrimidin-5-yl)methyl)phenyl)acetate]
100 | CCCCNc1nc(N)nc(C)c1Cc1ccc(CC(=O)OCCCCN2CCCC2)cc1 [Example 82, 4-(Pyrrolidin-1-yl)butyl 2-(4-((2-amino-4-(butylamino)-6-methylpyrimidin-5-yl)methyl)phenyl)acetate]
20 | CCCCNc1nc(N)nc(C)c1Cc1cc(CC(=O)OCC2CCN(C)CC2)ccc1OC [Example 83, (1-Methylpiperidin-4-yl)methyl 2-(3-((2-amino-4-(butylamino)-6-methylpyrimidin-5-yl)methyl)-4-methoxyphenyl)acetate]
316 | CCCCCNc1nc(N)nc(C)c1Cc1cccc(CC(=O)OCCCCN2CCCC2)c1 [Example 84, 4-(Pyrrolidin-1-yl)butyl 2-(3-((2-amino-4-methyl-6-(pentylamino)pyrimidin-5-yl)methyl)phenyl)acetate]
501 | CCCCCNc1nc(N)nc(C)c1Cc1cccc(CC(=O)OCC2CCN(C)CC2)c1 [Example 85, (1-Methylpiperidin-4-yl)methyl 2-(3-((2-amino-4-methyl-6-(pentylamino)pyrimidin-5-yl)methyl)phenyl)acetate]
200 | CCC[C@@H](CCO)Nc1nc(N)nc(C)c1Cc1ccc(CC(=O)OCCCCN(C)C)cc1F [Example 86, (S)-4-(Dimethylamino)butyl 2-(4-((2-amino-4-(1-hydroxyhexan-3-ylamino)-6-methylpyrimidin-5-yl)methyl)-3-fluorophenyl)acetate]
25.1 | CCC[C@@H](CCO)Nc1nc(N)nc(C)c1Cc1ccc(CC(=O)OCCCCN2CCN(C)CC2)cc1F [Example 87, (S)-4-(4-Methylpiperazin-1-yl)butyl 2-(4-((2-amino-4-(1-hydroxyhexan-3-ylamino)-6-methylpyrimidin-5-yl)methyl)-3-fluorophenyl)acetate]
100 | CCC[C@@H](CO)Nc1nc(N)nc(C)c1Cc1ccc(CC(=O)OC)cc1O [Example 88, (S)-Methyl 2-(4-((2-amino-4-(1-hydroxypentan-2-ylamino)-6-methylpyrimidin-5-yl)methyl)-3-hydroxyphenyl)acetate]
50.1 | CCCCNc1nc(N)nc(C)c1Cc1ccc(CC(=O)OCCO)cc1OC [Example 89, 2-Hydroxyethyl 2-(4-((2-amino-4-(butylamino)-6-methylpyrimidin-5-yl)methyl)-3-methoxyphenyl)acetate]
25.1 | CCCCNc1nc(N)nc(C)c1Cc1ccc(CC(=O)OCCCCN2CCC(N(C)C)CC2)cc1OC [Example 90, 4-(4-(Dimethylamino)piperidin-1-yl)butyl 2-(4-((2-amino-4-(butylamino)-6-methylpyrimidin-5-yl)methyl)-3-methoxyphenyl)acetate]
20 | CCCCNc1nc(N)nc(C)c1Cc1ccc(CC(=O)OCCCCO)cc1OC [Example 91, 4-Hydroxybutyl 2-(4-((2-amino-4-(butylamino)-6-methylpyrimidin-5-yl)methyl)-3-methoxyphenyl)acetate]
20 | CCCCNc1nc(N)nc(C)c1Cc1ccc(CC(=O)OCCCS(C)(=O)=O)cc1OC [Example 92, 3-(Methylsulfonyl)propyl 2-(4-((2-amino-4-(butylamino)-6-methylpyrimidin-5-yl)methyl)-3-methoxyphenyl)acetate]
20 | CCCCNc1nc(N)nc(C)c1Cc1ccc(CC(=O)OCCCO)cc1OC [Example 93, 3-Hydroxypropyl 2-(4-((2-amino-4-(butylamino)-6-methylpyrimidin-5-yl)methyl)-3-methoxyphenyl)acetate]
126 | CCC[C@@H](CCO)Nc1nc(N)nc(C)c1Cc1ccc(CC(=O)OCCCCN(C)C)cc1 [Example 94, (S)-4-(Dimethylamino)butyl 2-(4-((2-amino-4-(1-hydroxyhexan-3-ylamino)-6-methylpyrimidin-5-yl)methyl)phenyl)acetate]
63.1 | CCCCNc1nc(N)nc(C)c1Sc1ccc(CC(=O)OCC2CCN(C)CC2)cc1 [Example 95, (1-Methylpiperidin-4-yl)methyl 2-(4-(2-amino-4-(butylamino)-6-methylpyrimidin-5-ylthio)phenyl)acetate]
50.1 | CCCCNc1nc(N)nc(C)c1Sc1ccc(CC(=O)OCCCCN2CCCC2)cc1 [Example 96, 4-(Pyrrolidin-1-yl)butyl 2-(4-(2-amino-4-(butylamino)-6-methylpyrimidin-5-ylthio)phenyl)acetate]
31.6 | CCCCNc1nc(N)nc(C)c1Cc1cc(CC(=O)OCCCCN(C)C)ccc1OC [Example 97, 4-(Dimethylamino)butyl 2-(3-((2-amino-4-(butylamino)-6-methylpyrimidin-5-yl)methyl)-4-methoxyphenyl)acetate]
50.1 | CCCCNc1nc(N)nc(C)c1Cc1cc(CC(=O)OC)ccc1OC [Example 98, Methyl 2-(3-((2-amino-4-(butylamino)-6-methylpyrimidin-5-yl)methyl)-4-methoxyphenyl)acetate]
79.4 | CCCCNc1nc(N)nc(C)c1Cc1cc(CC(=O)OC)ccc1O [Example 99, Methyl 2-(3-((2-amino-4-(butylamino)-6-methylpyrimidin-5-yl)methyl)-4-hydroxyphenyl)acetate]
31.6 | CCC[C@@H](CCO)Nc1nc(N)nc(C)c1Cc1ccc(CC(=O)OCCC2CCN(C)CC2)cc1F [Example 100, (S)-2-(1-Methylpiperidin-4-yl)ethyl 2-(4-((2-amino-4-(1-hydroxyhexan-3-ylamino)-6-methylpyrimidin-5-yl)methyl)-3-fluorophenyl)acetate]
39.8 | CCCCNc1nc(N)nc(C)c1Cc1ccc(CC(=O)OCCc2scnc2C)cc1OC [Example 101, 2-(4-Methylthiazol-5-yl)ethyl 2-(4-((2-amino-4-(butylamino)-6-methylpyrimidin-5-yl)methyl)-3-methoxyphenyl)acetate]
100 | CCCCNc1nc(N)nc(C)c1Cc1ccc(CC(=O)OCCCCN(C)C)cc1O [Example 102, 4-(Dimethylamino)butyl 2-(4-((2-amino-4-(butylamino)-6-methylpyrimidin-5-yl)methyl)-3-hydroxyphenyl)acetate]
126 | CCCCNc1nc(N)nc(C)c1Cc1ccc(CC(=O)OCC2CCN(C)CC2)cc1O [Example 103, (1-Methylpiperidin-4-yl)methyl 2-(4-((2-amino-4-(butylamino)-6-methylpyrimidin-5-yl)methyl)-3-hydroxyphenyl)acetate]
